Holding throughout (type): functional, cell-based
Settings in all cases: Homo sapiens

For one assay, the system named is HCT-8. Nature of the assay: Cytotoxicity against HCT8 colon carcinoma cell.
The test system of another assay is Bel-7402. Nature of the assay: Cytotoxicity against Bel7402 liver carcinoma cell.
For a further assay, the system named is BGC-823. Nature of the assay: Cytotoxicity against BGC823 gastric carcinoma cell.

With `COc1cc2c(cc1OC)[C@@H]1[C@@H]3Cc4cc(OC)c(OC)cc4[C@H](COC(=O)c4cccc5ccccc45)N3[C@@H](C#N)[C@H](C2)N1C`, the results for the 50% inhibitory concentration (IC50) with HCT-8, in the assay on Bel-7402 and with BGC-823 were 340 nM, 710 nM and 6 nM, respectively.
The matching figures for `COc1cc2c(cc1OC)[C@@H]1[C@@H]3Cc4cc(OC)c(OC)cc4[C@H](COC(=O)[C@H]4Cc5ccccc5CN4Cc4ccccc4)N3[C@@H](C#N)[C@H](C2)N1C`: 1420 nM, 1690 nM and 360 nM.
The matching figures for `COc1cc2c(cc1OC)[C@@H]1[C@@H]3Cc4cc(OC)c(OC)cc4[C@H](COC(=O)c4cccc(Cl)c4)N3[C@@H](C#N)[C@H](C2)N1C`: 100 nM, 1120 nM and 29 nM.
Consider `COc1cc2c(cc1OC)[C@@H]1[C@@H]3Cc4cc(OC)c(OC)cc4[C@H](COC(=O)CCCc4ccccc4)N3[C@@H](C#N)[C@H](C2)N1C`, for which the IC50 – broadly, the concentration that gives 50% inhibition – is 830 nM in the assay on HCT-8, 120 nM with Bel-7402 and 750 nM in the assay on BGC-823.
The matching figures for `COc1cc2c(cc1OC)[C@@H]1[C@@H]3Cc4cc(OC)c(OC)cc4[C@H](COC(=O)c4cccnc4)N3[C@@H](C#N)[C@H](C2)N1C`: 3280 nM, 2100 nM and 1020 nM.
On to `COc1cc2c(cc1OC)[C@@H]1[C@@H]3Cc4cc(OC)c(OC)cc4[C@H](CNC(=O)/C=C/c4ccccc4)N3[C@@H](C#N)[C@H](C2)N1C`, for which the half-maximal inhibitory concentration (IC50) was 1780 nM in the assay on HCT-8, 1450 nM with Bel-7402 and 1310 nM in the assay with BGC-823.
The matching figures for `COc1cc2c(cc1OC)[C@@H]1[C@@H]3Cc4cc(OC)c(OC)cc4[C@H](COC(=O)c4ccco4)N3[C@@H](C#N)[C@H](C2)N1C`: 690 nM, 750 nM and 580 nM.
The like results for `C=CC(=O)OC[C@H]1c2cc(OC)c(OC)cc2C[C@H]2[C@H]3c4cc(OC)c(OC)cc4C[C@@H]([C@H](C#N)N12)N3C` were, in that order, 2140 nM, 760 nM and 460 nM.
Regarding `COc1cc2c(cc1OC)[C@@H]1[C@@H]3Cc4cc(OC)c(OC)cc4[C@H](CNC(=O)c4cccc5ccccc45)N3[C@@H](C#N)[C@H](C2)N1C`, the results for the IC50 with HCT-8, in the assay with Bel-7402 and in the assay with BGC-823 were 1720 nM, 2080 nM and 1860 nM, respectively.
The like results for `COc1cc2c(cc1OC)[C@@H]1[C@@H]3Cc4cc(OC)c(OC)cc4[C@H](CNC(=O)c4cccc(Cl)c4)N3[C@@H](C#N)[C@H](C2)N1C` were, in that order, 1540 nM, 950 nM and 1010 nM.
Turning to `CCC(=O)OC[C@H]1c2cc(OC)c(OC)cc2C[C@H]2[C@H]3c4cc(OC)c(OC)cc4C[C@@H]([C@H](C#N)N12)N3C`, the results for the IC50 in the assay on HCT-8, in the assay on Bel-7402 and in the assay with BGC-823 were 300 nM, 110 nM and 150 nM, respectively.
As to `COc1cc2c(cc1OC)[C@@H]1[C@@H]3Cc4cc(OC)c(OC)cc4[C@H](COC(=O)/C=C/c4ccccc4)N3[C@@H](C#N)[C@H](C2)N1C`, the IC50 was 37 nM in the assay with HCT-8, 680 nM in the assay on Bel-7402 and 58 nM in the assay with BGC-823.
On to `COc1cc2c(cc1OC)[C@@H]1[C@@H]3Cc4cc(OC)c(OC)cc4[C@H](CNC(=O)c4ccc([N+](=O)[O-])cc4)N3[C@@H](C#N)[C@H](C2)N1C`, for which the IC50 was 1230 nM in the assay on HCT-8, 1220 nM with Bel-7402 and 1370 nM in the assay on BGC-823.
As to `COc1cc2c(cc1OC)[C@@H]1[C@@H]3Cc4cc(OC)c(OC)cc4[C@H](COC(=O)c4cnccn4)N3[C@@H](C#N)[C@H](C2)N1C`, the IC50 was determined as 3480 nM with HCT-8, 3500 nM in the assay with Bel-7402 and 1690 nM in the assay with BGC-823.
On to `COc1cc2c(cc1OC)[C@@H]1[C@@H]3Cc4cc(OC)c(OC)cc4[C@H](COC(C)=O)N3[C@@H](C#N)[C@H](C2)N1C`, for which the IC50 in the assay with HCT-8 came to 310 nM; in the assay with Bel-7402, 340 nM; with BGC-823, 150 nM.
The matching figures for `COc1cc2c(cc1OC)[C@@H]1[C@@H]3Cc4cc(OC)c(OC)cc4[C@H](COC(=O)Cc4ccc(F)cc4)N3[C@@H](C#N)[C@H](C2)N1C`: 240 nM, 200 nM and 200 nM.
The like results for `COc1cc2c(cc1OC)[C@@H]1[C@@H]3Cc4cc(OC)c(OC)cc4[C@H](COC(=O)c4cc5ccccc5[nH]4)N3[C@@H](C#N)[C@H](C2)N1C` were, in that order, 620 nM, 850 nM and 10 nM.
For `COc1cc2c(cc1OC)[C@@H]1[C@@H]3Cc4cc(OC)c(OC)cc4[C@H](COC(=O)c4cncc(Br)c4)N3[C@@H](C#N)[C@H](C2)N1C`, the half-maximal inhibitory concentration (IC50) in the assay with HCT-8 turned out to be 1170 nM; in the assay with Bel-7402 it was 1490 nM; in the assay on BGC-823, 450 nM.
The like results for `COc1cc2c(cc1OC)[C@@H]1[C@@H]3Cc4cc(OC)c(OC)cc4[C@H](CNC(=O)c4ccco4)N3[C@@H](C#N)[C@H](C2)N1C` were, in that order, 1380 nM, 1200 nM and 1320 nM.
As to `COc1ccc(CC(=O)OC[C@H]2c3cc(OC)c(OC)cc3C[C@H]3[C@H]4c5cc(OC)c(OC)cc5C[C@@H]([C@H](C#N)N23)N4C)cc1`, the concentration for half-maximal inhibition (IC50) is 3560 nM in the assay with HCT-8, 3010 nM in the assay on Bel-7402 and 1140 nM in the assay on BGC-823.
The like results for `COc1cc2c(cc1OC)[C@@H]1[C@@H]3Cc4cc(OC)c(OC)cc4[C@H](CNC(=O)c4ccccc4Cl)N3[C@@H](C#N)[C@H](C2)N1C` were, in that order, 1850 nM, 1870 nM and 1910 nM.
As to `C=CC(=O)NC[C@H]1c2cc(OC)c(OC)cc2C[C@H]2[C@H]3c4cc(OC)c(OC)cc4C[C@@H]([C@H](C#N)N12)N3C`, the IC50 was determined as 2710 nM in the assay on HCT-8, 1870 nM in the assay on Bel-7402 and 2000 nM in the assay on BGC-823.
As to `COc1cc2c(cc1OC)[C@@H]1[C@@H]3Cc4cc(OC)c(OC)cc4[C@H](CNC(=O)c4ccccc4)N3[C@@H](C#N)[C@H](C2)N1C`, the IC50 in the assay on HCT-8 was found to be 1350 nM; in the assay on Bel-7402, 1350 nM; with BGC-823, 1400 nM.
In the case of `COc1cc2c(cc1OC)[C@@H]1[C@@H]3Cc4cc(OC)c(OC)cc4[C@H](COC(=O)c4cccs4)N3[C@@H](C#N)[C@H](C2)N1C`, the results for the IC50 in the assay on HCT-8, with Bel-7402 and with BGC-823 were 1600 nM, 820 nM and 210 nM, respectively.
The like results for `COc1cc2c(cc1OC)[C@@H]1[C@@H]3Cc4cc(OC)c(OC)cc4[C@H](CNC(=O)c4cccs4)N3[C@@H](C#N)[C@H](C2)N1C` were, in that order, 1280 nM, 790 nM and 1160 nM.
Consider `COc1cc2c(cc1OC)[C@@H]1[C@@H]3Cc4cc(OC)c(OC)cc4[C@H](COC(=O)c4ccccn4)N3[C@@H](C#N)[C@H](C2)N1C`, for which the figures for the half-maximal inhibitory concentration (IC50) with HCT-8, in the assay with Bel-7402 and in the assay with BGC-823 were 5150 nM, 2020 nM and 1440 nM, respectively.
The like results for `COc1cc2c(cc1OC)[C@@H]1[C@@H]3Cc4cc(OC)c(OC)cc4[C@H](COC(=O)c4ccccc4)N3[C@@H](C#N)[C@H](C2)N1C` were, in that order, 440 nM, 590 nM and 15 nM.

The values above are taken from ChEMBL document CHEMBL1138997, “Synthesis and antitumor activity of simplified ecteinascidin-saframycin analogs” (Bioorg Med Chem Lett, 2006).
